Test results as given in patent US7510825B2, “Kits and methods for detection of apoptotic cells” (NST NeuroSurvival Technologies Ltd, priority 2000, dated 2009).

How the values were obtained:
[1] = test system: L5178-S murine lymphoma tumors; assay: Quantification of DDC uptake into lymphoma tumor after radiotherapy; assay type: in vivo, mice; conditions: DDC for 2 hours
Procedure: Extraction of DDC uptake compound from cytosolic extracts of organs or tissues for quantitative measurement of DDC uptake: • a. Excising the relevant organ from animals, that were previously injected with DDC. • b. Weighting the organs and homogenize using tissue homogenizer in a cold Buffer-Hepes • c. Following total homogenization, centrifuging the sample at 13,800 rpm for 20 min at 4° C. and transferring the supernatant to a new test tube. • d. Repeating step c and taking the supernatant for quantitative fluorescence evaluation. Alternatively, the supernatant can be stored at −80° C. until use. • e. Placing a sample of 100 ul of organ suspension into each of three wells of a black to microtiter plate. • f. Measuring the fluorescence intensity of DDC (excitation 360 nm, emission 535 nm) using a fluorescence plate reader.
Creating a calibration curve for the fluorescence plate reader using serial dilution of the DDC compound: 1:10, 1:20, 1:40, 1:80, 1:160, 1:320, 1:640, 1:1280.
Murine lymphoma model was established using DBA/2 mice injected subcutaneously with L5178-S murine lymphoma cells. Tumor treatment, by multiply fractionated X-irradiation (3 fractions of 6 Gy/day), started when the tumor reached in diameter 6-8 mm (approximately ten days after tumor implantation). At different time points (24, 48 or 72 hours) following irradiation, mice were injected with DDC for 2 hours. Tumors were harvested from control and radiation-treated animals and processed for quantitative analysis of DDC uptake into the tumor.

[2] = test system: MCF-7 breast carcinoma tumors; assay: Detection by DDC of apoptosis in breast carcinoma after irradiation; assay type: in vivo, mice; conditions: following irradiation (two doses of 8 Gray) vs non irradiated
Procedure: (§1) A. Administration of DDC in-vivo: Injection of 200 μl of DDC intravenously. Following 1-2 hours, animal is sacrificed, and the desired organ is placed in a test tube or on a small plate, suitable for liquid nitrogen freezing. The plate is then covered with an aluminum foil, and transferred to liquid nitrogen. Following 5-30 minutes the specimen is being frozen to −80° C. and kept at −80° C. for at least 16 hr. B. Analysis of the Specimen: • a. Whole organ imaging Ex-vivo whole organ fluorescence imaging may be carried out on freshly excised specimen, that can be analyzed under a stereomicroscope (such as Leica MZ FL III, Leica Switzerland). DDC may be visualized using 360cx and >420cm nm filter set. Emitted fluorescence can be imaged using appropriate camera and software, such as a Leica DC 300F Distal camera and images can be processed and analyzed by Leica QWin Lite software. • b. Histological analysis, from the frozen organ or tissue, 4 μm cryosections are prepared on slides. Analysis of the tissue sections can be performed using a fluorescence microscope with a UV filter characterized by excitation at 360-370 nm (band pass) and emission at 420 nm (barrier filter) In case that staining of the examined tissue is desired, the following procedures can be applied: […]

[3] = test system: C6-Glioma tumor; assay: Accumulation of DDC in apoptotic cells of glioma following irradiation; assay type: in vivo, mice; conditions: 20 h after radiation (6 gray)
[4] = test system: tubular epithelial cells of the septic kidney; assay: Focal uptake of DDC in the septic kidney (cecal ligature and perforation); assay type: in vivo, mice; conditions: 24 h after cecal ligature and puncture
Procedure: as §1

[5] = test system: C26 colon carcinoma cells; assay: Time course of DDC binding to C26 colon carcinoma cells treated with BiCNU; assay type: cell-based; conditions: 0.5 mM BiCNU for 2 hr
Procedure: For microscopic analysis the concentration of cells should be within 1-2×10^7/ml. […] If fixation is needed, it should be performed after DDC staining. • 1. Adjusting the cells to 1-2×10^7/ml in buffer. • 2. Transferring 96 μl from the cell suspension to an eppendorf and staining the cells by adding 4 μl from the DDC solution. Incubating for 10-40 minutes at RT protected from light. • 3. A double labeling could be conducted with PI, if desired. In such a case, 1 μl is added from the PI solution. • 4, Placing the cell suspension on a glass slide. Covering the cells with a glass coverslip. Alternatively, for analyzing adherent cells, cells may grow directly on coverslip. Staining the cells by incubation with DDC (4 μl of DDC/96 μl buffer reaction) or 10-40 minutes and PI (1 μl). Covering the slide with a coverslip and visualizing the cells. If desired, at that point the cells can be washed and fixed in 1% formaldehyde before visualization. Mounting should be done in a solution of 50% glycerol/PBS (v/v). • 5. Observing the cells under fluorescent or confocal microscope equipped with the appropriate UV filter (excitation at 360-370 nm, band pass, and emission at 420 nm, barrier filter. Using a Triple filter (Hoechst/FITC/Texas Red) allows concomitant observation of both DDC and PI. Quantitative Assay for DDC Accumulation using Fluorescene Spectroscopy […]

SMILES: CN(C)c1cccc2c(S(=O)(=O)NC(CSSCC(NS(=O)(=O)c3cccc4c(N(C)C)cccc34)C(=O)O)C(=O)O)cccc12 (stereo not drawn) [DDC]
- DDC uptake into the tumor, times higher over the control mean values ([1]; 24 hours following X-irradiation (3 fractions of 6 Gy/day)): 3.68 times
- DDC uptake into the tumor, times higher over the control mean values ([1]; 48 hours following X-irradiation (3 fractions of 6 Gy/day)): 4.69 times
- DDC uptake into the tumor, times higher over the control mean values ([1]; 72 hours following X-irradiation (3 fractions of 6 Gy/day)): 6.74 times
- uptake of DDC into single cells of the tumor [2]: increased uptake
- binding to viable tumor cells or normal brain tissue [3]: not binding
- labeling of cells undergoing cell death within the glioma tumor [3]: specifically and selectively labeled cells undergoing cell death
- DDC staining versus TUNEL staining [4]: detected early apoptotic cells where TUNEL staining is still negative
- identification of focal tubular cell injury ([4]; compared with H&E): clearly identified by DDC staining
- time to staining of apoptotic cells [5]: ≤ 40 s
